Where a name gives a salt, the structure may show the parent alone.

What is called melting point is the temperature, or range, at which the solid turns liquid. `Cc1c(Cc2ccc(F)cc2)c(=O)oc2cc(OC(=O)N(C)c3ccccc3)ccc12` registered a melting point of 185 to 186 °C.

`O=C(Oc1ccc(Oc2ccc(C(F)(F)F)cn2)cc1)N1CCN(c2ccccc2)CC1` came in with a melting point of 117 °C.

Molecule `CN(C(=O)On1cccn1)c1ccccc1` had a melting point of 63 to 67 °C.

In turn, `O=C(Oc1ccc(Oc2ccc(C(F)(F)F)cn2)cc1)N1CCN(c2ccc3c(c2)OCO3)CC1` showed a melting point of 146 to 147 °C.

`O=C(Oc1ccc(Oc2ccc(C(F)(F)F)cn2)cc1)N1CCN(c2ncccn2)CC1`: the melting point was 120 to 121 °C.

As for `O=C(Oc1ccc(Oc2ccc(C(F)(F)F)cn2)cc1)N1CCN(c2ccc(Cl)c(Cl)c2)CC1`, the melting point is 115 to 116 °C.

In the case of `O=C(Oc1ccc(Oc2ccc(C(F)(F)F)cn2)cc1)N1CCN(c2cnccn2)CC1`, the melting point lay in the range of 160 to 161 °C.

Take `O=C(Oc1ccc(Oc2ccc(C(F)(F)F)cn2)cc1)N1CCCN(Cc2ccc(-c3ccccc3)cc2)CC1`: the melting point came out at 143 °C.

`O=C(Oc1ccc(Oc2ccc(C(F)(F)F)cn2)cc1)N1CCN(c2ncccc2C(F)(F)F)CC1` gave a melting point of 131 to 132 °C.

In turn, `Cc1cc(C)nc(Sc2ccc(OC(=O)N3CCN(Cc4cccc(F)c4)CC3)cc2)n1` came in with a melting point of 117 to 118 °C.

`COc1ccc(N2CCN(C(=O)Oc3ccc(Oc4ccc(C(F)(F)F)cn4)cc3)CC2)c(OC)c1` gave a melting point of 98 to 99 °C.

As for `O=C(Oc1ccc(Oc2ccc(C(F)(F)F)cn2)cc1)N1CC2CC1CN2Cc1ccccc1` (stereo not shown), the melting point lay within 114 to 115 °C.

Regarding `O=C(Oc1ccc(Oc2ccc(C(F)(F)F)cn2)cc1)N1CCN(Cc2ccc3c(c2)OCO3)CC1` (as salt: hydrochloride), the melting point is 239 to 240 °C.

As to `O=C(Oc1ccc(Oc2ccc(C(F)(F)F)cn2)cc1)N1CCN(Cc2ccccc2)CC1` (as salt: hydrochloride), the melting point lay within 229 to 231 °C.

Take `O=C(Oc1ccc(Oc2ccc(C(F)(F)F)cn2)cc1)N1CCN(CCO)CC1` (as salt: hydrochloride): the melting point was determined as 255 °C.

`O=C(CN1CCN(C(=O)Oc2ccc(Oc3ccc(C(F)(F)F)cn3)cc2)CC1)N1CCCC1` (as salt: hydrochloride) yielded a melting point of 224 °C.

`O=C(Oc1ccc(Oc2ccc(C(F)(F)F)cn2)cc1)N1CCN(C2CCCC2)CC1` (as salt: hydrochloride) displayed a melting point of 294 to 295 °C.

Molecule `CCCCN1CCN(C(=O)Oc2ccc(Oc3ccc(C(F)(F)F)cn3)cc2)CC1` (as salt: hydrochloride) came in with a melting point of 221 to 222 °C.

Turning to `O=C(Oc1ccc(Oc2ccc(C(F)(F)F)cn2)cc1)N1CCN(c2ccccn2)CC1` (as salt: hydrochloride), the melting point is 247 to 248 °C.

`CC(C)(C)c1ccc(CN2CCN(C(=O)Oc3ccc(Oc4ccc(C(F)(F)F)cn4)cc3)CC2)cc1` (as salt: hydrochloride) gave a melting point of 274 to 275 °C.

Turning to `O=C(Oc1ccc(Oc2ccc(C(F)(F)F)cn2)cc1)N1CCN(Cc2ccc(F)cc2)CC1` (as salt: hydrochloride), the melting point was 240 to 243 °C.

In turn, `O=C(Oc1ccc(Oc2ccc(C(F)(F)F)cn2)cc1)N1CCN(CCc2cccs2)CC1` (as salt: hydrochloride) registered a melting point of 236 to 237 °C.

For `O=C(Oc1ccc(Oc2ccc(C(F)(F)F)cn2)cc1)N1CCN(Cc2ccccn2)CC1` (as salt: hydrochloride), the melting point was 189 to 190 °C.

Molecule `O=C(Oc1ccc(Oc2ccc(C(F)(F)F)cn2)cc1)N1CCN(c2ccc(F)cc2)CC1` (as salt: hydrochloride) came in with a melting point of 131 to 132 °C.

For the molecule `O=C(Oc1ccc(Oc2ccc(C(F)(F)F)cc2)cc1)N1CCN(CCOCCO)CC1` (as salt: hydrochloride), the melting point was in the range of 176 to 178 °C.

In turn, `O=C(Oc1ccc(Oc2ccc(C(F)(F)F)cc2)cc1)N1CCN(C2CCCCC2)CC1` (as salt: hydrochloride) showed a melting point of 290 to 291 °C.

`Cc1ccc(CN2CCN(C(=O)Oc3ccc(Oc4ccc(C(F)(F)F)cc4)cc3)CC2)cc1` (as salt: hydrochloride) had a melting point of 250 to 252 °C.

Molecule `COc1ccc(CN2CCN(C(=O)Oc3ccc(Oc4ccc(C(F)(F)F)cn4)cc3)CC2)cc1` (as salt: hydrochloride) gave a melting point of 237 to 238 °C.

Regarding `O=C(Oc1ccc(Oc2ccc(C(F)(F)F)cn2)cc1)N1CCN(Cc2c(F)cccc2Cl)CC1` (as salt: hydrochloride), the melting point was 204 to 205 °C.

In the case of `COc1cccc(N2CCN(C(=O)Oc3ccc(Oc4ccc(C(F)(F)F)cc4)cc3)CC2)c1` (as salt: hydrochloride), the melting point lay in the range of 168 to 171 °C.

The molecule `O=C(Oc1ccc(Oc2ncc(C(F)(F)F)cc2Cl)cc1)N1CCN(Cc2ccccc2)CC1` (as salt: hydrochloride) registered a melting point of 111 to 113 °C.

`COc1cccc(CN2CCN(C(=O)Oc3ccc(Oc4ccc(C(F)(F)F)cn4)cc3)CC2)c1` (as salt: hydrochloride) displayed a melting point of 214 to 215 °C.

Take `O=C(Oc1ccc(Oc2ccc(C(F)(F)F)cn2)cc1)N1CCN(Cc2cccc(F)c2)CC1` (as salt: hydrochloride): the melting point fell in the range of 138 to 139 °C.

In the case of `O=C(Oc1ccc(Oc2ccc(C(F)(F)F)cn2)cc1)N1CCN(CCc2ccncc2)CC1` (as salt: hydrochloride), the melting point is 268 to 271 °C (dec.).

The values above are taken from patent publication US7067517B2 (priority 2001, dated 2006).
